≈ marks a conversion by molar mass, not a printed value. Entries after “also recorded” stand apart in the source; their conditions may differ.
Key:
Heliothis virescens [1] = experiment: Artificial diet feeding bioassay, mortality and growth inhibition in first-instar larvae; type: in vivo, Heliothis virescens (tobacco budworm); settings: for EC50 (concentration causing 50% growth inhibition): Table 1, first-instar Heliothis virescens larvae, artificial diet, parentheses = 95% confidence limits
Excerpt: The results of the growth inhibitory and lethal activities of azadirachtin and these 8 derivatives when fed in an artificial diet to Heliothis virescens larvae are shown in Table 1. Similar to the results of Morgan, E. D., in "Natural pesticides from the Neem tree (Azadirachta indica A. Juss), Schmutterer, H., et al., Eds., Proc. First International Neem Conference (Rottach-Egern, 1980), German Agency for Technical Corporation,Eschborn, Germany, 1982, pps. 43-52 (hereinafter "Morgan"), neither deacetylation nor hydrogenation of the carbon-carbon double bond of the dihydrofuran ring moiety of azadirachtin had any significant effect on activity of the compound against H. virescens.
Mortality and growth inhibition in first-instar Heliothis
virescens larvae fed azadirachtin and eight derivatives in an
artificial diet (I. Kubo and J. A. Klocke, In: Plant Resistance to
Insects (P. A. Helin, Ed.), ACS Symposium Series 208, American Chemical
Society, Washington, D.C. (1983), pp. 329-346.).^a
^b LC50 values are the concentrations (ppm) causing 50%
^c EC50 values are the concentrations (ppm) causing 50% growth
^d Numbers in parentheses are the 95% confidence limits determined
using the methods of Litchfield and Wilcoxon, J. Pharmacol. Exp. Ther.
An artificial diet feeding bioassay with neonate larvae of tobacco budworm (Heliothis virescens) and fall armyworm (Spodoptera frugiperda) was used as previously described (Kubo and Klocke, 1983) to detect insecticidal activities in the plant extracts to monitor fractionation, and to determine the potency of the isolated constituents and derivatives. Potency was determined either as the effective concentration (EC50) of added material that is necessary to reduce larval growth to 50% of the control values or as the lethal concentration (LC50) of added material that is necessary to kill 50% of the treated larvae. EC50 and LC50 values were determined from log probit paper and analyzed statistically by the method of Litchfield and Wilcoxon, supra.

Heliothis virescens [2] = experiment: Oral injection of fifth-instar larvae, pupal and adult development (non-irradiated compounds); type: in vivo; settings: for Adults (%) / Adults Deformed (%) / Pupae (%) / Unsuccessful Larvae-Pupae (%) / Unsuccessful Pupae-Adult (%): % of larvae; for inhibition of pupation (in words): 1.0 μg per os
Description: (§1) Individual larvae were injected per os on the first day of the fifth instar with 1.0 μg of either irradiated or non-irradiated compounds dissolved in 1.0 μl of 75% aqueous ethanol.
Table 2: Successful and unsuccessful pupal and adult development of
fifthinstar Heliothis Virescens larvae injected orally with 1.0 microgram
of either azadirachtin, 3deacetylazadirachtin, 22,23dihydroazadirachtin,
or 2',3',22,23tetrahydroazadirachtin.

Heliothis virescens [3] = experiment: Relative activity of UV-irradiated compounds in inhibiting pupal development of fifth-instar larvae; type: in vivo; settings: for Relative activity, inhibition of pupal development: relative to non-irradiated counterpart
Description: (§2) Azadirachtin, 3-deacetylazadirachtin, 22,23-dihydroazadirachtin, and 2',3',22,23-tetrahydroazadirachtin (1.0 mg/ml absolute ethanol) were placed individually in capped quartz NMR tubes (5×180 mm) and were irradiated with two UV germicidal lights (GE, G30T8, 200-280 nm, 30W) 1.8 m from the source at room temperature for up to 400 h. The controls were identical samples protected from exposure to UV radiation by wrapping with aluminum foil. At selected time intervals, aliquots from both the controls (non-irradiated) and irradiated samples were removed for high-performance liquid chromatography (HPLC) analysis and bioassay (vide infra).
as §1
Table 3: Relative activity of azadirachtin, 3deacetylaza-dirachtin,
22,23dihydroazadirachtin, and 2',3',22,23tetrahydroazadirachtin, all of
which had been exposed for 15, 30, 90, 200, and 400 hours to UV radiation
inhibiting the pupal development of fifthinstar Heliothis virescens
(§3) larvae. Relative activity is defined as the percentage of larvae injected

Heliothis virescens [4] = experiment: Relative activity of UV-irradiated compounds in inhibiting adult development of fifth-instar larvae; type: in vivo; settings: for Relative activity, inhibition of adult development: relative to non-irradiated counterpart
Description: as §2, §1
Table 4: Relative activity of azadirachtin, 3deacetylaza-dirachtin,
22,23dihydroazadirachtin, 2',3',22,23tetrahydroaza-dirachtin, all of whic
had been exposed for 15, 30, 90, 200, and 400 hours to UV radiation, in
inhibiting the adult development of fifthinstar Heliothis virescens
as §3
relative to the percentage injected with its nonirradiated counterpart

[5] = UV stability in ethanol by reversed phase HPLC; type: physicochemical; settings: for UV lability (in words): UV irradiation, HPLC
Description: Stability of Azadirachtin derivatives was determined as follows:
as §2
Analytical reversed phase HPLC was performed on a phenyl (5μm) column run isocratically with acetonitrile-water (3:7) (Yamasaki et al.) Peaks were detected at 214 nm. The irradiated samples were compared with their corresponding non-UV-irradiated controls by measuring the height of the peak eluting at the appropriate Rt for each irradiated compound relative to each one's non-irradiated control. Results are expressed as the percent of the initial sample concentration remaining relative to the control. Each time point was done in at least triplicate fashion.

[6] = 1.0 microgram injected orally, fifth-instar, non-irradiated

Row | Compound | EC50 (concentration causing 50% growth inhibition) (Heliothis virescens [1]) | Number Adults (Heliothis virescens [2]; [6]) [Number] | Number Adults Deformed (Heliothis virescens [2]; [6]) [Number] | Unsuccessful Larvae-Pupae (number) (Heliothis virescens [2]; [6]) [Number] | Unsuccessful Pupae-Adult (number) (Heliothis virescens [2]; [6]) [Number] | Adults (%) (Heliothis virescens [2]; 1.0 microgram injected orally) | Adults Deformed (%) (Heliothis virescens [2]; 1.0 microgram injected orally) | Pupae (%) (Heliothis virescens [2]; 1.0 microgram injected orally) | Unsuccessful Larvae-Pupae (%) (Heliothis virescens [2]; 1.0 microgram injected orally) | Unsuccessful Pupae-Adult (%) (Heliothis virescens [2]; 1.0 microgram injected orally) | inhibition of pupation (in words) (Heliothis virescens [2]; non-irradiated) | Relative activity, inhibition of pupal development (Heliothis virescens [3]; 15 h UV exposure) [%] | Relative activity, inhibition of pupal development (Heliothis virescens [3]; 30 h UV exposure) [%] | Relative activity, inhibition of pupal development (Heliothis virescens [3]; 90 h UV exposure) [%] | ability to inhibit pupation after UV (in words) (Heliothis virescens [3]; 200 h UV) | Relative activity, inhibition of pupal development (Heliothis virescens [3]; 200 h UV exposure) [%] | ability to inhibit pupation after UV (in words) (Heliothis virescens [3]; 400 h UV) | Relative activity, inhibition of pupal development (Heliothis virescens [3]; 400 h UV exposure) [%] | Relative activity, inhibition of adult development (Heliothis virescens [4]; 15 h UV exposure) [%] | Relative activity, inhibition of adult development (Heliothis virescens [4]; 30 h UV exposure) [%] | further results
1 | COC(=O)C1(O)OCC23C(O)CC(OC(C)=O)C4(C(=O)OC)COC(C42)C(O)C(C)(C24OC2(C)C2CC4OC4OCCC42O)C13 (centres unmarked) [1-detigloyl-22,23-dihydroazadirachtin] | 0.59 (0.30-1.14) ppm | – | – | – | – | – | – | – | – | – | – | – | – | – | – | – | – | – | – | – | –
2 | CCC(C)C(=O)OC1CC(OC(C)=O)C2(C(=O)OC)COC3C2C12COC(O)(C(=O)OC)C2C(C)(C12OC1(C)C1CC2OC2OCCC21O)C3O (centres unmarked) [2',3',22,23-tetrahydroazadirachtin] | 0.08 (0.05-0.13) ppm | 0 | 0 | 6 | 1 | 0 | 0 | 7.4 | 4.4 | 0.7 | equally effective | 99.4 | 103.7 | 99.7 | most active in inhibiting pupation | 108.0 | some loss in activity; also recorded: still more active than the other test compounds | 69.1 | 100.0 | 100.0 | insecticidal activity (in words) (Heliothis virescens [1]; Heliothis virescens feeding): full activity; also recorded: fully active; Relative activity, inhibition of adult development (Heliothis virescens [4]; 90 h UV exposure): 100.0%; Relative activity, inhibition of adult development (Heliothis virescens [4]; 200 h UV exposure): 100.0%; ability to inhibit larvae from reaching the adult stage after UV (in words) (Heliothis virescens [4]; 400 h UV): fully active; Relative activity, inhibition of adult development (Heliothis virescens [4]; 400 h UV exposure): 100.0%; degradation following 200 h of exposure to UV radiation (in words) [5]: no degradation; UV lability (in words) [5]: not UV-labile
3 | COC(=O)C1(O)OCC23C(OC(=O)C(C)(O)C(C)O)CC(OC(C)=O)C4(C(=O)OC)COC(C42)C(O)C(C)(C24OC2(C)C2CC4OC4OCCC42O)C13 (centres unmarked) [2',3'-dihydroxy-2',3',22,23-tetrahydroazadirachtin] | 3.80 (1.95-7.41) ppm | – | – | – | – | – | – | – | – | – | – | – | – | – | – | – | – | – | – | – | –
4 | C/C=C(\C)C(=O)OC1CC(O)C2(C(=O)OC)COC3C2C12COC(O)(C(=O)OC)C2C(C)(C12OC1(C)C1CC2OC2OC=CC21O)C3O (centres unmarked) [3-deacetylazadirachtin] | 0.09 (0.05-0.17) ppm | 10 | 10 | 13 | 4 | 5.9 | 5.9 | 33.1 | 7.7 | 2.4 | less effective | 115.2 | 135.0 | 139.5 | did decline | 86.8 | even greater decline | 41.0 | 103.2 | 106.3 | Number Pupae (Heliothis virescens [2]; [6]): 56 Number; activity retained after 90 h of exposure to UV radiation (in words) (Heliothis virescens [3]; 90 h UV): retained full activity; activity retained after 400 h of exposure to UV radiation (Heliothis virescens [3]; 400 h UV): approximately 50%; ability to inhibit pupation after UV (in words) (Heliothis virescens [3]; up to 90 h UV): not appreciably reduced; Relative activity, inhibition of adult development (Heliothis virescens [4]; 90 h UV exposure): 106.3%; ability to inhibit larvae from reaching the adult stage after UV (in words) (Heliothis virescens [4]; 200 h UV): remained substantially unchanged until 400 h of irradiation; Relative activity, inhibition of adult development (Heliothis virescens [4]; 200 h UV exposure): 96.0%; Relative activity, inhibition of adult development (Heliothis virescens [4]; 400 h UV exposure): 72.3%; degradation following 400 h of exposure to UV radiation (in words) [5]: none of the three compounds remained in their original state; kinetics of UV degradation (in words) [5]: first-order reaction; UV lability (in words) [5]: UV-labile
5 | C/C=C(\C)C(=O)OC1CC(OC(C)=O)C2(C(=O)OC)COC3C2C12COC(OC(=O)OC)(C(=O)OC)C2C(C)(C12OC1(C)C1CC2OC2OCCC21OC(=O)OC)C3O (centres unmarked) [11,20-O, O-dicarbomethoxy-22,23-dihydroazadirachtin] | 29.0 (20.3-41.5) ppm | – | – | – | – | – | – | – | – | – | – | – | – | – | – | – | – | – | – | – | LC50 (Heliothis virescens [1]; Heliothis virescens, po, read-out: LC50 (concentration causing 50% mortality)): 90 µg/mL (≈ 107 µM)
